# Data taken from US20190038689A1, “TOPICAL SKIN COMPOSITIONS FOR TREATING ERYTHEMA OR SKIN INFLAMMATION” (MARY KAY INC., priority 2017, published 2019).
# Test system: Nitric oxide synthases (NOS)
# Assay: Nitric Oxide Synthase Activity Assay (NO product measured as nitrite, improved Griess method)
# Format: biochemical
# Details: for Nitric Oxide Synthase Activity: negative = reduction
# Procedure: Nitric Oxide Synthase Activity Assay:
# Nitric oxide synthases (NOS) are a family of enzymes catalyzing the production of nitric oxide (NO) from L-arginine. NOS is an important mediator of vasodilation in blood vessels. This bioassay was used to analyze the effect of saccharide isomerate extract, Myrothamnus flabellifolia extract, [6]-paradol, and a combination of algae extract and mugwort (Artemisia vulgaris) extract on the activity of NOS. The bioassay is performed in the presence or absence of the test compound, test extract, or positive control during production of NO by NOS. To measure the activity of NOS, the NO product is allowed to oxidize to nitrite and nitrate and then the nitrate is reduced to nitrite and measured using an improved Griess method. It was shown that saccharide isomerate extract, Myrothamnus flabellifolia extract, [6]-paradol, and a combination of algae extract and mugwort (Artemisia vulgaris) extract reduced the activity of NOS greater than the 1 μM SIN-1 positive control.
SMILES,activity of NOS was reduced by (1 μM positive control),"Nitric Oxide Synthase Activity (1 μM, positive control) [%]",Nitric Oxide Synthase Activity (1% ingredient) [%],activity of NOS was reduced by (rounded values of Table 2 (1% ingredient)) [%]
[NH-]c1c[n+](N2CCOCC2)no1 [SIN-1],approximately 29%,−28.7,,
"CCCCCCCC(=O)CCc1ccc(O)c(OC)c1 [SYMRELIEF ® S, 1-(4-hydroxy-3-methoxyphenyl)decan-3-one]",,,−46.617,~47
